Here are results for 16 molecules from patent US10815244B2, “Isoidide derivatives and methods of making and using same” (Rutgers, the State University of New Jersey, priority 2015, dated 2020).

The target in this test is EGFR kinase (Homo sapiens (Human), UniProt P00533). Put plainly: EGFR kinase activity, luminescent ATP/ADP detection assay. It counts as biochemical. The settings on record: purified EGFR kinase, 10 min incubation, luminescence ADP detection. The method, then: Example RR: EGFR as a Drug Target Assay Conditions
Sequence of EGFR kinase (P00533 25-1210): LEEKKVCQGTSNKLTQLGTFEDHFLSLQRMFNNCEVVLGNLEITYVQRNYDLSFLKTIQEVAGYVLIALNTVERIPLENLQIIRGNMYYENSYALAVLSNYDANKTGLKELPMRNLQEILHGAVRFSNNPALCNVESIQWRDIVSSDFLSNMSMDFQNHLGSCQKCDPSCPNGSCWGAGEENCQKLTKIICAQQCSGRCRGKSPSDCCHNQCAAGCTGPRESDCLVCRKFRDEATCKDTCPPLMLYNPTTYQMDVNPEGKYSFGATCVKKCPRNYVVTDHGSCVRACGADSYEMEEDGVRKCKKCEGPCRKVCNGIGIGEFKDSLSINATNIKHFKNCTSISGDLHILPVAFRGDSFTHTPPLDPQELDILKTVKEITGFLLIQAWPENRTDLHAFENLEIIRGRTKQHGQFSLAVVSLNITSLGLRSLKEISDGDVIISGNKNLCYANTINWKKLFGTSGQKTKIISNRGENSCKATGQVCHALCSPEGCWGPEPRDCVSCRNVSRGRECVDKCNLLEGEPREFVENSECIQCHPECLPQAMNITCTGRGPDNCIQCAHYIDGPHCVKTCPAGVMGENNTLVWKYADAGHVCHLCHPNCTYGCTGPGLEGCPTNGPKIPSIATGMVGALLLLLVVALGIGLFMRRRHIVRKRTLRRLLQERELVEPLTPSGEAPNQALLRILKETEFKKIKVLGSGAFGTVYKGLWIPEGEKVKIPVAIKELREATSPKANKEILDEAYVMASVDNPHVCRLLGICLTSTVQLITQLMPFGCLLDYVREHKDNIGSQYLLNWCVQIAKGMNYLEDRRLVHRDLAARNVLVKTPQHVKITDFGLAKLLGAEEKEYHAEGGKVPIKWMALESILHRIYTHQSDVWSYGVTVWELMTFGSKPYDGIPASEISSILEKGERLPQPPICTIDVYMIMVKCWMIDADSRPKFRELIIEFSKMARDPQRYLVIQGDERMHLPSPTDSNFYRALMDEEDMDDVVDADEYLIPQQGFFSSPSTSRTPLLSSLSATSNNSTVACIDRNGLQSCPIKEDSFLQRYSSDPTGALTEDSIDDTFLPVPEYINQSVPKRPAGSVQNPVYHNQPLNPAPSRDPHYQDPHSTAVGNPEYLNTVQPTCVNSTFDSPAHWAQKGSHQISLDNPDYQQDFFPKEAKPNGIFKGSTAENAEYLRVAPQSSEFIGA
The IC50s of the compounds on EGFR activity were determined using the Luminescent ATP/ADP detection assay system. Briefly, the assay method measures ADP formed from EGFR kinase activity using luminescence derived from ATP-Luciferase detection system. Purified EGFR kinase was incubated with different concentrations of test compound in the kinase reaction buffer for 10 min. The reaction was stopped by depleting the unused ATP in the kinase reaction buffer using the depletion buffer for 40 min. The levels of ADP generated during the kinase reaction was detected by measuring the luminescence using the Luciferase system.
Consider `CSc1ncc(Br)c(C(=O)O[C@H]2CO[C@H]3[C@@H]2OC[C@@H]3O)n1` [Example KK, [(3S,3aR,6S,6aR)-3-hydroxy-2,3,3a,5,6,6a-hexahydrofuro[3,2-b]furan-6-yl] 5-bromo-2-methylsulfanyl-pyrimidine-4-carboxylate], for which the “EGFR IC50” value is on record as “Inactive”.

Turning to `COc1cc2ncnc(Nc3ccc(O[C@H]4CO[C@H]5[C@@H]4OC[C@@H]5OCc4ccccc4)cc3)c2cc1OC` [Example Z, N-[4-[[(3S,3aR,6S,6aR)-3-benzyloxy-2,3,3a,5,6,6a-hexahydrofuro[3,2-b]furan-6-yl]oxy]phenyl]-6,7-dimethoxy-quinazolin-4-amine], the IC50 is more than 100 nM.

As for `CS(=O)(=O)N1CCC(Nc2nccc(O[C@H]3CO[C@H]4[C@@H]3OC[C@@H]4OC(=O)c3ccccc3)n2)CC1` [Example JJ, [(3S,3aR,6S,6aR)-3-[2-[(1-methylsulfonyl-4-piperidyl)amino]pyrimidin-4-yl]oxy-2,3,3a,5,6,6a-hexahydrofuro[3,2-b]furan-6-yl] benzoate], the “EGFR IC50” value is given as “Inactive”.

With `COc1cc2ncnc(Nc3ccc(O[C@H]4CO[C@H]5[C@@H]4OC[C@@H]5OC(C)=O)cc3)c2cc1OC` [Example X, [(3S,3aR,6S,6aR)-3-[4-[(6,7-dimethoxyquinazolin-4-yl)amino]phenoxy]-2,3,3a,5,6,6a-hexahydrofuro[3,2-b]furan-6-yl] acetate], the IC50 was more than 500 nM.

For `CC(=O)O[C@H]1CO[C@H]2[C@@H]1OC[C@@H]2Oc1ccnc(NCc2ccc(F)cc2)n1` [Example II, [(3S,3aR,6S,6aR)-3-[2-[(4-fluorophenyl)methylamino]pyrimidin-4-yl]oxy-2,3,3a,5,6,6a-hexahydrofuro[3,2-b]furan-6-yl] acetate], the “EGFR IC50” value is listed as “Inactive”.

Regarding `COc1cc2ncnc(Nc3ccc(O[C@H]4CO[C@H]5[C@@H]4OC[C@@H]5OC(=O)c4ccccc4)c(Cl)c3)c2cc1OC` [Example DD, [(3S,3aR,6S,6aR)-3-[2-chloro-4-[(6,7-dimethoxyquinazolin-4-yl)amino]phenoxy]-2,3,3a,5,6,6a-hexahydrofuro[3,2-b]furan-6-yl] benzoate], the concentration for half-maximal inhibition (IC50) was more than 100 nM.

In the case of `CC(=O)O[C@H]1CO[C@H]2[C@@H]1OC[C@@H]2Oc1ccnc(NC2CCN(S(C)(=O)=O)CC2)n1` [Example FF, [(3S,3aR,6S,6aR)-3-[2-[(1-methylsulfonyl-4-piperidyl)amino]pyrimidin-4-yl]oxy-2,3,3a,5,6,6a-hexahydrofuro[3,2-b]furan-6-yl] acetate], the “EGFR IC50” value is “Inactive”.

In turn, `COc1cc2ncnc(Nc3ccc(O[C@H]4CO[C@H]5[C@@H]4OC[C@@H]5O)c(Cl)c3)c2cc1OC` [Example T, (3S,3aR,6S,6aR)-6-[2-chloro-4-[(6,7-dimethoxyquinazolin-4-yl)amino]phenoxy]-2,3,3a,5,6,6a-hexahydrofuro[3,2-b]furan-3-ol] returned an IC50 of more than 100 nM.

On to `CC(=O)O[C@H]1CO[C@H]2[C@@H]1OC[C@@H]2Oc1ccc(Nc2ncnc3ccsc23)cc1` [Example Y, [(3S,3aR,6S,6aR)-3-[4-(thieno[3,2-d]pyrimidin-4-ylamino)phenoxy]-2,3,3a,5,6,6a-hexahydrofuro[3,2-b]furan-6-yl] acetate], for which the IC50 was more than 1000 nM.

For the molecule `O[C@H]1CO[C@H]2[C@@H]1OC[C@@H]2Oc1ccc(Nc2ccnc(Nc3ccc(O[C@H]4CO[C@H]5[C@@H]4OC[C@@H]5O)c(Cl)c3)n2)cc1Cl` [Example W, (3S,3aR,6S,6aR)-6-[4-[[2-[4-[[(3S,3aR,6S,6aR)-3-hydroxy-2,3,3a,5,6,6a-hexahydrofuro[3,2-b]furan-6-yl]oxy]-3-chloro-anilino]pyrimidin-4-yl]amino]-2-chloro-phenoxy]-2,3,3a,5,6,6a-hexahydrofuro[3,2-b]furan-3-ol], the “EGFR IC50” value was “Inactive”.

The molecule `COc1cc2ncnc(Nc3ccc(O[C@H]4CO[C@H]5[C@@H]4OC[C@@H]5OCc4ccccc4)c(Cl)c3)c2cc1OC` [Example AA, N-[4-[[(3S,3aR,6S,6aR)-3-benzyloxy-2,3,3a,5,6,6a-hexahydrofuro[3,2-b]furan-6-yl]oxy]-3-chloro-phenyl]-6,7-dimethoxy-quinazolin-4-amine] came in with an IC50 of more than 100 nM.

`O[C@H]1CO[C@H]2[C@@H]1OC[C@@H]2Oc1ccc(Nc2ncnc3ccsc23)cc1Cl` [Example U, (3S,3aR,6S,6aR)-6-[2-chloro-4-(thieno[3,2-d]pyrimidin-4-ylamino)phenoxy]-2,3,3a,5,6,6a-hexahydrofuro[3,2-b]furan-3-ol] had an IC50 of more than 100 nM.

Regarding `CSc1nccc(Nc2ccc(O[C@H]3CO[C@H]4[C@@H]3OC[C@@H]4O)c(Cl)c2)n1` [Example V, (3S,3aR,6S,6aR)-6-[2-chloro-4-[(2-methylsulfanylpyrimidin-4-yl)amino]phenoxy]-2,3,3a,5,6,6a-hexahydrofuro[3,2-b]furan-3-ol], the “EGFR IC50” value is “Inactive”.

As to `CC(=O)O[C@H]1CO[C@H]2[C@@H]1OC[C@@H]2Oc1ccc(Nc2ncnc3ccsc23)cc1Cl` [Example CC, [(3S,3aR,6S,6aR)-3-[2-chloro-4-(thieno[3,2-d]pyrimidin-4-ylamino)phenoxy]-2,3,3a,5,6,6a-hexahydrofuro[3,2-b]furan-6-yl] acetate], the IC50 is more than 500 nM.

As for `COc1cc2ncnc(Nc3ccc(O[C@H]4CO[C@H]5[C@@H]4OC[C@@H]5OC(C)=O)c(Cl)c3)c2cc1OC` [Example BB, [(3S,3aR,6S,6aR)-3-[2-chloro-4-[(6,7-dimethoxyquinazolin-4-yl)amino]phenoxy]-2,3,3a,5,6,6a-hexahydrofuro[3,2-b]furan-6-yl] acetate], the IC50 was more than 500 nM.

`O=C(O[C@H]1CO[C@H]2[C@@H]1OC[C@@H]2Oc1ccc(Nc2ncnc3ccsc23)cc1Cl)c1ccccc1` [Example EE, [(3S,3aR,6S,6aR)-3-[2-chloro-4-(thieno[3,2-d]pyrimidin-4-ylamino)phenoxy]-2,3,3a,5,6,6a-hexahydrofuro[3,2-b]furan-6-yl] benzoate] had an IC50 of more than 500 nM.

The IC50 is the concentration that gives 50% inhibition. Read a low IC50 as inhibition by little substance.
